Source: BindingDB's records for doi:10.1021/jm00057a007 (Kyowa Hakko Kogyo, 1993)
Where a name gives a salt, the structure may show the parent alone.

Assay: Inhibition of guinea pig acetylcholinesterase
For `N#CC(C#N)C1=NCCN1CCNCc1ccc(CN2CCCC(O)C2)o1` (stereo unspecified) [2-[1-(2-{[5-(3-Hydroxy-piperidin-1-ylmethyl)-furan-2-ylmethyl]-amino}-ethyl)-imidazolidin-2-ylidene]-malononitrile], the IC50 was 370 nM.
Molecule `N#CC(C#N)C1=NCCN1CCNCc1ccc(CN2CCC(O)CC2)o1` [2-[1-(2-{[5-(4-Hydroxy-piperidin-1-ylmethyl)-furan-2-ylmethyl]-amino}-ethyl)-imidazolidin-2-ylidene]-malononitrile] has an IC50 of 390 nM.
In the case of `CC1CCCN(Cc2ccc(CNCCN3CCN=C3C(C#N)C#N)o2)C1` (stereo unspecified) [2-[1-(2-{[5-(3-Methyl-piperidin-1-ylmethyl)-furan-2-ylmethyl]-amino}-ethyl)-imidazolidin-2-ylidene]-malononitrile], the IC50 is reported as 370 nM.
In the case of `CN(C)Cc1ccc(CNCCN2CCN=C2C(C#N)C#N)o1` [2-(1-{2-[(5-Dimethylaminomethyl-furan-2-ylmethyl)-amino]-ethyl}-imidazolidin-2-ylidene)-malononitrile], the IC50 is reported as 390 nM.

Assay: Inhibition of guinea pig acetylcholinesterase
In the case of `CC1CCN(Cc2ccc(CNCCN3CCN=C3C(C#N)C#N)o2)CC1` [2-[1-(2-{[5-(4-Methyl-piperidin-1-ylmethyl)-furan-2-ylmethyl]-amino}-ethyl)-imidazolidin-2-ylidene]-malononitrile], the IC50 is reported as 290 nM.
`N#CC(C#N)C1=NCCN1CCNCc1ccc(CN2CCSCC2)o1` [2-(1-{2-[(5-Thiomorpholin-4-ylmethyl-furan-2-ylmethyl)-amino]-ethyl}-imidazolidin-2-ylidene)-malononitrile] showed an IC50 of 1500 nM.
With `CN=C(NCCNCc1ccc(COC)o1)C(C#N)C#N` [2-({2-[(5-Methoxymethyl-furan-2-ylmethyl)-amino]-ethylamino}-methylamino-methylene)-malononitrile] the IC50 was > 20000 nM.
With `CN=C(NCCNCc1ccc(CN2CCCC2)o1)C(C#N)C#N` [2-(Methylamino-{2-[(5-pyrrolidin-1-ylmethyl-furan-2-ylmethyl)-amino]-ethylamino}-methylene)-malononitrile] the IC50 was 280 nM.
For `N#CC(C#N)C1=NCCN1CCNCc1ccc(CN2CCCCC2)o1` [2-(1-{2-[(5-Piperidin-1-ylmethyl-furan-2-ylmethyl)-amino]-ethyl}-imidazolidin-2-ylidene)-malononitrile], the IC50 was 30 nM.
With `N#CC(C#N)C1=NCCN1CCNCc1ccc(CN2CCCCCC2)o1` the IC50 was 120 nM.
Work on `O=c1[nH]c2ccccc2n1CCNCc1ccc(CN2CCCCC2)o1` [1-{2-[(5-Piperidin-1-ylmethyl-furan-2-ylmethyl)-amino]-ethyl}-1,3-dihydro-benzoimidazol-2-one] yielded an IC50 of 1200 nM.
In the case of `COC1CCCN(Cc2ccc(CNCCN3CCN=C3C(C#N)C#N)o2)C1` (stereo unspecified), the IC50 is reported as 3300 nM.
For `CN=C(NCCNCc1ccc(CN(C(C)C)C(C)C)o1)C(C#N)C#N` [2-{[2-({5-[(Diisopropylamino)-methyl]-furan-2-ylmethyl}-amino)-ethylamino]-methylamino-methylene}-malononitrile], the IC50 was 2100 nM.
With `CN(C)Cc1ccc(CNCCN2CCN=C2C[N+](=O)[O-])o1` [(5-Dimethylaminomethyl-furan-2-ylmethyl)-[2-(2-nitromethylene-imidazolidin-1-yl)-ethyl]-amine] the IC50 was > 2000 nM.
Work on `N#CC(C#N)C1=NCCN1CCNCc1ccc(CN2CCOCC2)o1` [2-(1-{2-[(5-Morpholin-4-ylmethyl-furan-2-ylmethyl)-amino]-ethyl}-imidazolidin-2-ylidene)-malononitrile] yielded an IC50 of 11000 nM.
`CN=C(NCCNCc1ccc(CN2CCCCC2)o1)C(C#N)C#N` showed an IC50 of 830 nM.
`COc1cc(N)c(Cl)cc1C(=O)NCCNCc1ccc(CN(C)C)o1` [4-Amino-5-chloro-N-{2-[(5-dimethylaminomethyl-furan-2-ylmethyl)-amino]-ethyl}-2-methoxy-benzamide] showed an IC50 of 3100 nM.
For `CCN(CC)Cc1ccc(CNCCN2CCN=C2C(C#N)C#N)o1`, the IC50 was 600 nM.
`N#CC(C#N)C1=NCCN1CCNCc1ccc(CN2CC=CCC2)o1` gave an IC50 of 95 nM.
`CNc1c(NCCNCc2ccc(CN3CCCCC3)o2)c(=O)c1=O` [3-Methylamino-4-{2-[(5-piperidin-1-ylmethyl-furan-2-ylmethyl)-amino]-ethylamino}-cyclobut-3-ene-1,2-dione] gave an IC50 of 9300 nM.
In the case of `CC1CCCCN1Cc1ccc(CNCCN2CCN=C2C(C#N)C#N)o1` (stereo unspecified) [2-[1-(2-{[5-(2-Methyl-piperidin-1-ylmethyl)-furan-2-ylmethyl]-amino}-ethyl)-imidazolidin-2-ylidene]-malononitrile], the IC50 is reported as 540 nM.
Molecule `N#CC(C#N)C1=NCCN1CCNCc1ccc(CN2CCCC2)o1` [2-(1-{2-[(5-Pyrrolidin-1-ylmethyl-furan-2-ylmethyl)-amino]-ethyl}-imidazolidin-2-ylidene)-malononitrile] has an IC50 of 80 nM.
`CCN(C)Cc1ccc(CNCCN2CCN=C2C(C#N)C#N)o1` [2-{1-[2-({5-[(Ethyl-methyl-amino)-methyl]-furan-2-ylmethyl}-amino)-ethyl]-imidazolidin-2-ylidene}-malononitrile] gave an IC50 of 430 nM.
For `N#CC(C#N)c1nc2ccccc2n1CCNCc1ccc(CN2CCCCC2)o1` [2-(1-{2-[(5-Piperidin-1-ylmethyl-furan-2-ylmethyl)-amino]-ethyl}-1,3-dihydro-benzoimidazol-2-ylidene)-malononitrile], the IC50 was 73 nM.
Work on `CN=C(NCCNCc1ccc(CN(C)C)o1)C(C#N)C#N` [2-({2-[(5-Dimethylaminomethyl-furan-2-ylmethyl)-amino]-ethylamino}-methylamino-methylene)-malononitrile] yielded an IC50 of 630 nM.
With `CCN(CC)CCNC(=O)c1cc(Cl)c(N)cc1OC` [4-amino-5-chloro-N-[2-(diethylamino)ethyl]-2-methoxy-benzamide;hydrochloride] the IC50 was > 20000 nM.
